The source of these data is US20250127784A1, “Treatment of Telangiectasia” (IMPERIAL COLLEGE INNOVATIONS LIMITED, priority 2022, published 2025).

Entries after “also recorded” stand apart in the source; their conditions may differ.

The subject of data set [1] is pulmonary arteriovenous malformations (PAVMs) of the HHT patient. Put plainly: Blinded thoracic CT scan comparison of pulmonary AVMs before and after trametinib. The class given is in vivo, human. The note with it: for effect on pulmonary AVMs (CT scans): 1 month before versus after 10 months of trametinib treatment; for size of venous sac #7: 13 mm at T−2 ys, 15 mm at T−1M. The method, then: Thoracic CT scan images taken for clinical purposes were compared before Trametinib (−10 years (T−10 yrs), −2 years (T−2ys), −1 month (T−1M)), and after Trametinib for 4 months (T+4M), 10 months (T+10M) and 18 months (T+18M, data not shown).
Blinded analysis of the CT scans was conducted by an expert Imperial Thoracic Radiologist to address the question of “whether the PAVMs have stayed the same, got better, or got worse?”

The subject of data set [2] is HHT-associated haemorrhage (nosebleeds) and anaemia in ENG+/− HHT patient. Put plainly: Clinical case: HHT patient treated with trametinib, nosebleeds and transfusion-dependent anaemia. The note with it: for nosebleed frequency grade/category for HHT patients (Shovlin 2010, N=202): pre: highest category.
The conditions of data set [3]: dose of 2 mg/day; cited from earlier work.
Data set [4] concerns MEK1/2 transcript levels in control and ENG+/− BOECs. Description: RNASeq of blood outgrowth endothelial cells (BOECs) treated by BMP9: MEK1/2. It is filed as cell-based, human. The note with it: treated by BMP9 for 1 hour versus untreated, RBM45-normalised. The method, then:
FIG. 9: RNASeq data in HHT and control endothelial cells for MAP2K1 encoding MEK1 from 16 cultures of blood outgrowth endothelial cells (BOECs: 4 controls, and 12 from the HHT genotypes ACVRL1^+/−, ENG^+/− and SMAD4^+/−). Data were RBM45-normalised which normalises for PTC-induced stress. A All BOECs, B Control and ENG BOECs; C Control and ENG BOECs untreated (unRx) and treated (Rx) by BMP9 for 1 hour. Bars: mean and standard deviation; circles: individual cultures.
FIG. 10: RNASeq data in HHT and control endothelial cells for MAP2K2 encoding MEK2 from 16 cultures of blood outgrowth endothelial cells (BOECs: 4 controls, and 12 from the HHT genotypes ACVRL1^+/−, ENG^+/− and SMAD4^+/−). Data were RBM45-normalised which normalises for PTC-induced stress. A All BOECs, B Control and ENG BOECs; C Control and ENG BOECs untreated (unRx) and treated (Rx) by BMP9 for 1 hour. Bars: mean and standard deviation; circles: individual cultures.
RNAseq was carried out on BOECs from HHT patients and healthy controls to investigate MEK1/MEK2 transcription levels, using RBM45 normalisation to normalise for PTC-related stress.

Data set [5] concerns MAP3K1 transcripts in BOECs. Description: RNASeq of blood outgrowth endothelial cells (BOECs) treated by BMP9: MAP3K1. The class given is cell-based, human. As to conditions: all BOECs (N=16), treated by BMP9 for 1 hour versus untreated. The method, then:
FIG. 8: MAP3K1 RNASeq data in HHT and control endothelial cells from 16 cultures of blood outgrowth endothelial cells (BOECs: 4 controls, and 12 from the HHT genotypes ACVRL1^+/−, ENG^+/− and SMAD4^+/−). Data were RBM45-normalised. A Untreated BOECs (N=8). B All BOECs (N=16), untreated (unRx), and treated (Rx) by BMP9 for 1 hour. Bars: mean and standard deviation; circles: individual cultures.
To test this hypothesis, further RNASeq analysis of blood outgrowth endothelial cells (BOECs) from HHT patients was carried out. It has previously been shown that the Shovlin group established BOECs from controls and patients of all 3 HHT genotypes (ENG^+/−, ACVRL1^+/− and SMAD4^+/−); extracted RNA from replicate cultures; and developed novel methodologies to interpret primary alignment data generated by sequencing alignments to Homo sapiens human genome build 38 (GRCh38). […]
To test this hypothesis, further RNAseq analysis of blood outgrowth endothelial cells (BOECs) from HHT patients was carried out, and the relative expression levels of TGFβ/BMP9 signalling inhibitors was investigated. […] RNA had been extracted from replicate cultures; sequenced and aligned to Homo sapiens human genome build 38 (GRCh38), and unique gene reads normalised to total alignment counts per library initially further normalised using the Shovlin-group validated, lowest Gini Coefficient (GC) housekeeper gene RBM45 […]

As for `CC(=O)Nc1cccc(-n2c(=O)n(C3CC3)c(=O)c3c(Nc4ccc(I)cc4F)n(C)c(=O)c(C)c32)c1` [trametinib, N-(3-{3-Cyclopropyl-5-[(2-fluoro-4-iodophenyl)amino]-6,8-dimethyl-2,4,7-trioxo-3,4,6,7-tetrahydropyrido[4,3-d]pyrimidin-1(2H)-yl}phenyl)acetamide], the “effect on pulmonary AVMs (CT scans)” value in data set [1] is on record as “has no effect on the patient's AVMs; also recorded: pulmonary AVMs did not improve”; in data set [1] (listed as Trametinib), “No pulmonary AVMs improved; also recorded: had no effect on the PAVMs; also recorded: within the error of CT, but with a probable slight increase in size”. Besides, the “size of venous sac #7” value was determined as 16 mm in data set [1] (T+4M (trametinib for 4 months)) and 16.6 mm in data set [1] (T+10M (trametinib for 10 months)). In addition, the “number of the 11 main pulmonary AVMs possibly slightly larger” value in data set [1] (scans 1 month before trametinib and 11 months later, after 10 months of treatment) turned out to be 4. Further, in data set [2] (ENG+/− HHT patient, trametinib treatment), the “overall effect on HHT telangiectasia, nosebleeds (haemorrhage) and anaemia” value is “treats telangiectasia, and particularly anaemia and haemorrhage associated with telangiectasia in HHT; also recorded: clinically important improvement in nosebleeds and anaemia; also recorded: elicited an improvement in HHT-associated haemorrhage (nosebleeds) and anaemia”. In addition, the “maximum nose bleed frequency, two most severe categories (daily or weekly)” value in data set [2] (after 10 months of trametinib treatment) is recorded as “no longer fitted into either of these categories”. Moreover, in data set [2] (after 10 months of trametinib, pre: 4th highest grouping), the “haemorrhage adjusted iron requirement (HAIR) grouping (Finnamore 2013, N=50)” value was “lowest grouping”. Besides, the “nosebleed frequency grade/category for HHT patients (Shovlin 2010, N=202)” value in data set [2] (after 10 months of trametinib) is on record as 3rd lowest frequency grade; in data set [2] (after 10 months of trametinib, listed as Trametinib) it was “third lowest category”. In data set [2] (after 10 months of trametinib, pre: highest quintile), the “haemorrhage adjusted iron requirement (HAIR) quintile (Finnamore 2013, N=50)” value is “lowest quintile”. Besides, the intensity of nosebleeds result in data set [2] (after 10 months trametinib treatment) is listed as “brief trickles”. Besides, the nosebleed frequency result in data set [2] (after 10 months trametinib treatment, before: several times per week to multiple times per day) is on record as “no more than once per month”. Moreover, the “blood (red cell) transfusion requirement for anaemia” value in data set [2] (after 10 months trametinib treatment, previously every 3 weeks) is recorded as “transfusions were not required even at extended assessment times”. This molecule had a transfusion assessment interval in data set [2] (after 10 months trametinib treatment, previously transfusions every 3 weeks) of 8 weekly. In data set [2] (at 18 and 24 months of trametinib treatment), the “nosebleeds (frequency and intensity), maintained frequency” value is given as “approximately one a year”. Besides, the “haemorrhage adjusted iron requirement (HAIR)” value in data set [2] (at 18 and 24 months of trametinib treatment (not shown)) was “reduced”. For the same molecule, the “side effects, adverse event grade (CTCAE version 5.0)” value in data set [2] (standard chemotherapeutic regimen, HHT patient with cancer) is recorded as “Grade 1”. Besides, the elimination half-life in data set [3] is 93.6 to 115 h.

B1: BMP9: bone morphogenetic protein 9 (aka growth and differentiation factor 2, GDF2); causal ligand for HHT, used to treat BOECs for 1 hour (protein, UniProt Q9UK05 320-429, looked up)
Growth/differentiation factor …: SAGAGSHCQKTSLRVNFEDIGWDSWIIAPKEYEAYECKGGCFFPLADDVTPTKHAIVQTLVHLKFPTKVGKACCVPTKLSPISVLYKDDMGVPTLKYHYEGMSVAECGCR
As for B1, in data set [4], the “MEK1/2 transcript levels (RNASeq)” value is on record as “no effect”. The “MAP3K1 transcripts (RNASeq)” value in data set [5] is given as “significantly increased”.
